The values that follow come from patent publication US7964631B2, “Fused tricyclic compounds as inhibitors of tumor necrosis factor-α” (Piramal Life Sciences Limited, priority 2004, dated 2011).

Where a name gives a salt, the structure may show the parent alone.

The subject of series [1] is TNF-α. Nature of the series: Whole blood cell culture assay: LPS-induced TNF-α release (primary screening). It is filed as cell-based, human. The following applies: Homo sapiens, Whole blood cell; test compound 1 μM; diluted whole blood of healthy donors; LPS 1 μg/ml, 4.5 h; vs DMSO control. As for the experimental part: TNF-α production by lipopolysaccharide (LPS) in whole blood was measured according to the method described by Wilson et al (J. Immunol. Methods, 139: 233-240, 1991). Briefly, blood was collected from healthy donors into potassium EDTA vacutainer tubes (Vacutest Plast/Becton Dickinson) and diluted with RPMI 1640 culture medium (Gibco BRL, Pasley, UK) containing 100 U/ml penicillin and 100 μg/ml streptomycin, (100× solution, Sigma Chemical Co. St Louis, Mo.) with no added serum. The white blood cell count was adjusted to 1×10^6 cells/ml and 100 μl/well of the diluted blood was transferred into 96-well culture plates. Following cell plating, 79 μl of culture medium and 1 μl of the test compounds (final concentration 1 μM) dissolved in DMSO (dimethylsulfoxide, Sigma, Mo., USA) was added to the cells. The final concentration of DMSO was adjusted to 0.5%. 1 μl of vehicle (0.5% DMSO) was used as control. Rolipram (100 μM) was used as a standard compound. The plates were incubated for 30 min at 37° C. in an atmosphere of 5% CO2. Finally, 20 μl (10 μg/ml) per well of LPS (Escherchia coli 0127:B8, Sigma Chemical Co., St. Louis, Mo.) was added, for a final concentration of 1 μg/ml. Plates were incubated at 37° C. for 4.5 h in an atmosphere of 5% CO2. Supernatants were harvested and assayed for TNF-α by ELISA as described by the manufacturer (R&D Systems, MN) or by cytotoxicity bioassay in L929 cells. Percent inhibition of TNF-α release in comparison to the control was calculated.

Series [2] concerns peripheral blood mononuclear cells (PBMC). Nature of the series: Cytotoxicity of test compounds in PBMC, cell viability by MTS reagent. It is filed as cell-based, human. As for the experimental part: (§1) TNF-α production by LPS in peripheral blood mononuclear cells (PBMC) was measured according to the method described by Henry et al (J. Bioorg. Med. Chem. Lett., 8: 3335-3340, 1998). Briefly, blood was collected from healthy donors into Potassium EDTA vacutainer tubes (Vacutest Plast/Becton Dickinson). PBMC were isolated using gradient centrifugation in Ficoll-Paque solution (Pharmacia). Isolated PBMC were suspended in RPMI 1640 culture medium (Gibco BRL, Pasley, UK) containing 10% fetal bovine serum (FBS) (Hyclone, Utah, USA), 100 U/ml penicillin (Sigma Chemical Co. St Louis, Mo.) and 100 μg/ml streptomycin (Sigma Chemical Co. St Louis, Mo.). The cell concentration was adjusted to 1×10^6 cells/ml. The viability as determined by trypan blue dye exclusion was uniformly ≧98%. The cell suspension (100 μl) was added to the wells of a 96-well culture plate. Following cell plating, 79 μl of the culture medium and 1 μl of eight different concentrations of the test compounds (final concentration 0.03, 0.1, 0.3, 1, 3, 10, 30, 100 μM) dissolved in DMSO (dimethylsulfoxide, Sigma, Mo., USA) were added to the cells. The final concentration of DMSO was adjusted to 0.5%. The appropriate DMSO concentration was used as control. Rolipram (30 μM) was used as a standard compound. The plates were incubated for 30 min at 37° C. in an atmosphere of 5% CO2. Finally, 20 μl (10 μg/ml) per well of LPS, (Escherchia coli 0127:B8, Sigma Chemical Co., St. Louis, Mo.) was added, for a final concentration of 1 μg/ml. The plates were incubated at 37° C. for 4.5 h in an atmosphere of 5% CO2. To determine the cytotoxicity of the test compounds, the cell viability was assessed using MTS (3-(4,5-dimethylthiazol-2-yl)-5-(3-carboxymethoxyphenyl)-2-(4-sulfonyl)-2H-tetrazolium) reagent (Promega) after 4.5 h of incubation. Supernatants were harvested and assayed for TNF-α by ELISA as described by the manufacturer (R&D Systems, MN, BD Biosciences Pharmingen) or by cytotoxicity bioassay in L929 cells. The 50% inhibitory concentration (IC50) values were calculated by a nonlinear regression method using GraphPad software (Prism 3.03)
On the technique in general: Tetrazolium assays rely on reduction of a dye to a coloured formazan, in cell work by metabolically active cells.

Series [3] concerns TNF-α. Kind of series: LPS-induced TNF-α release in BALB/c mice. It is filed as in vivo. The following applies: Mus musculus, LPS 1 mg/kg i.p. 1 h after dosing, plasma TNF-α 1.5 h after LPS, read-out: % inhibition (Mean ± SE*); for inhibition in vivo at 100 mg/kg: 100 mg/kg po; for inhibition in vivo at 30 mg/kg: 30 mg/kg po. As to the method: The protocol described by Fukuda T. et al (Eur. J. Pharmacol., 391: 317-320, 2000) was followed. BALB/c mice were divided into groups of five to ten each. The test compound, suspended in Tween 80-0.5% carboxy methylcellulose (CMC), with a few drops of Tween 80 as wetting agent if necessary, was administered orally (p.o.) to the mice. One hour later, LPS dissolved in sterile, pyrogen-free saline was administered i.p. at the dose of 1 mg/kg. The negative control group received saline as an i.p injection, while all other groups received LPS. Rolipram (30 mg/kg) was used as the standard drug. One and a half hours later, blood was collected in heparin. Plasma was separated by centrifugation at 13000 rpm (Heraeus Biofuge Pico Centrifuge) at room temperature, aliquoted and stored at −70° C. until analysis.
TNF-α levels in the blood samples were assayed using ELISA and % inhibition of TNF-α release compared to the control group was calculated.

Series [4] has as its system TNF-α. Kind of series: LPS-induced TNF-α production in peripheral blood mononuclear cells (secondary screening). To be noted: 4.5 h, TNF-α production in PBMC, LPS 1 μg/ml, ELISA or L929 bioassay. It is filed as cell-based. As to the method:
as §1
(In an ELISA, binding on a coated surface is turned into a signal by an enzyme label.)

The term inhibition denotes the drop in the measured response relative to a control, in per cent. High values mean strong suppression, low ones little suppression. A word on the IC50: it is the point on the concentration scale where inhibition reaches its midpoint. High values mean a need for much substance, low ones inhibition by little substance. As usually defined, the melting point is the temperature, or range, at which the solid turns liquid.

In turn, `COC(=O)c1cc(C)c2c(c1)S(=O)(=O)Cc1cc(N3CCN(C(=O)OCc4ccccc4)CC3)cc(Cl)c1O2` [Example 26, 4-(4-Chloro-8-methoxycarbonyl-6-methyl-10,10-dioxo-10,11-dihydro-5-oxa-10lambda*6*-thia-dibenzo[a,d]cyclohepten-2-yl)-piperazine-1-carboxylic acid benzyl ester] gave a melting point of 170 to 173 °C. Moreover, in series [1], at 1 µM the inhibition was 85%. Also, the “% toxicity (10 μM), 5 h” value in series [2] is 00%. Further, in series [3], the inhibition in vivo at 100 mg/kg came to 68.7 ± 3.68%. The same compound returned an IC50 in series [4] of 8050 ± 1570 nM.

With `Cc1cc(C(=O)OC(C)C)cc2c1Oc1c(Cl)cc(N3CCNCC3)cc1CS2(=O)=O.Cl` [Example 28, 4-Chloro-6-methyl-10,10-dioxo-2-piperazin-1-yl-10,11-dihydro-5-oxa-10lambda*6*-thia-dibenzo[a,d]cycloheptene-8-carboxylic acid isopropyl ester hydrochloride], the melting point lay in the range of 262 to 264 °C. Moreover, the inhibition at 1 µM in series [1] turned out to be 70%. The “% toxicity (10 μM), 5 h” value in series [2] was found to be 15%. In series [4], the IC50 turned out to be 10500 nM.

Take `Cc1cc(C(=O)O)cc2c1Oc1c(Cl)cc(N)cc1CS2(=O)=O` [Example 3, 2-Amino-4-chloro-6-methyl-10,10-dioxo-10,11-dihydro-5-oxa-10lambda*6*-thia-dibenzo[a,d]cycloheptene-8-carboxylic acid sodium salt]: the inhibition in vivo at 100 mg/kg in series [3] came to 40.7 ± 12.7%.

In the case of `COC(=O)c1cc(C)c2c(c1)S(=O)(=O)Cc1cc(N3CCN(CCO)CC3)cc(Cl)c1O2` [Example 22, 4-Chloro-2-[4-(2-hydroxy-ethyl)-piperazin-1-yl]-6-methyl-10,10-dioxo-10,11-dihydro-5-oxa-10lambda*6*-thia-dibenzo[a,d]cycloheptene-8-carboxylic acid methyl ester], the “% toxicity (10 μM), 5 h” value in series [2] worked out at 16%. Further, the inhibition in vivo at 100 mg/kg in series [3] worked out at 57.7 ± 5.66%. In series [4], this compound yielded an IC50 of 880 nM.

For the compound `COC(=O)c1cc(C)c2c(c1)S(=O)(=O)Cc1cc(N)cc(Cl)c1O2` [Example 1, 2-Amino-4-chloro-6-methyl-10,10-dioxo-10,11-dihydro-5-oxa-10lambda*6*-thia-dibenzo[a,d]cycloheptene-8-carboxylic acid methyl ester], the melting point was 258 to 260 °C. The “% toxicity (10 μM), 5 h” value in series [2] is 12%. Further, the inhibition in vivo at 10 mg/kg in series [3] (10 mg/kg po) is 64.9 ± 3.97%. Besides, the IC50 in series [4] is 8600 nM.

In the case of `COC(=O)c1cc(C)c2c(c1)S(=O)(=O)Cc1ccc(N3CCNCC3)c(Cl)c1O2.Cl` [Example 32, 4-Chloro-6-methyl-10,10-dioxo-3-piperazin-1-yl-10,11-dihydro-5-oxa-10lambda*6*-thia-dibenzo[a,d]cycloheptene-8-carboxylic acid methyl ester hydrochloride], the melting point is 235 to 237 °C. For the same compound, the inhibition at 1 µM in series [1] is 96%. The “% toxicity (10 μM), 5 h” value in series [2] amounted to 27%. The compound further yielded an IC50 in series [4] of 160 nM.

As to `COC(=O)c1cc(C)c2c(c1)S(=O)(=O)Cc1cc(N3CCN(C=O)CC3)cc(Cl)c1O2` [Example 20, 4-Chloro-2-(4-formyl-piperazin-1-yl)-6-methyl-10,10-dioxo-10,11-dihydro-5-oxa-10lambda*6*-thia-dibenzo[a,d]cycloheptene-8-carboxylic acid methyl ester], the “% toxicity (10 μM), 5 h” value in series [2] stood at 24%. In addition, the inhibition in vivo at 30 mg/kg in series [3] stood at 27.9 ± 17.5%. In addition, in series [4], the IC50 worked out at 1100 nM.

`Cc1cc(C(=O)O)cc2c1Oc1c(Cl)cc(N3CCNCC3)cc1CS2(=O)=O` [Example 18, 4-Chloro-6-methyl-10,10-dioxo-2-piperazin-1-yl-10,11-dihydro-5-oxa-10lambda*6*-thia-dibenzo[a,d]cycloheptene-8-carboxylic acid]: in series [3], the inhibition in vivo at 100 mg/kg is 22.7 ± 8.47%.

In the case of `Cc1cc(C(=O)O)cc2c1Oc1c(Cl)cc(NC=O)cc1CS2(=O)=O` [Example 7, 4-Chloro-2-formylamino-6-methyl-10,10-dioxo-10,11-dihydro-5-oxa-10lambda*6*-thia-dibenzo[a,d]cycloheptene-8-carboxylic acid], the inhibition in vivo at 100 mg/kg in series [3] was determined as 55.8 ± 9.24%.

Take `COC(=O)c1cc(C)c2c(c1)S(=O)(=O)Cc1cc(N3CCN(C(C)=O)CC3)cc(Cl)c1O2` [Example 21, 2-(4-Acetyl-piperazin-1-yl)-4-chloro-6-methyl-10,10-dioxo-10,11-dihydro-5-oxa-10lambda*6*-thia-dibenzo[a,d]cycloheptene-8-carboxylic acid methyl ester]: the “% toxicity (10 μM), 5 h” value in series [2] turned out to be 44%. Also, the inhibition in vivo at 30 mg/kg in series [3] was determined as 54.6 ± 11.7%. Besides, the IC50 in series [4] was determined as 4000 nM.

For the compound `COC(=O)c1cc(C)c2c(c1)S(=O)(=O)Cc1cc(NC=O)cc(Cl)c1O2` [Example 9, 4-Chloro-2-formylamino-6-methyl-10,10-dioxo-10,11-dihydro-5-oxa-10lambda*6*-thia-dibenzo[a,d]cycloheptene-8-carboxylic acid methyl ester], the melting point is 258 to 262 °C (dec.). Further, in series [1], the inhibition at 1 µM is 31%. Further, the “% toxicity (10 μM), 5 h” value in series [2] is 09%. Also, in series [4], it took 2600 nM to reach half-maximal inhibition (IC50).

For `COC(=O)Cc1cc(C)c2c(c1)S(=O)(=O)Cc1cc(N3CCNCC3)cc(Cl)c1O2.Cl` [Example 33, (4-Chloro-6-methyl-10,10-dioxo-2-piperazine-1-yl-10,11-dihydro-5-oxa-10lambda*6*-thia-dibenzo[a,d]cyclohepten-8-yl)-acetic acid methyl ester hydrochloride], the melting point was 280 °C (dec.). Further, the inhibition at 1 µM in series [1] was found to be 95%. In series [2], the “% toxicity (10 μM), 5 h” value is on record as 29%. This compound had an IC50 in series [4] of 200 nM.

As to `COC(=O)c1cc(C)c2c(c1)S(=O)(=O)Cc1cc(N3CCN(S(C)(=O)=O)CC3)cc(Cl)c1O2` [Example 25, 4-Chloro-2-(4-methanesulfonyl-piperazin-1-yl)-6-methyl-10,10-dioxo-10,11-dihydro-5-oxa-10lambda*6*-thia-dibenzo[a,d]cycloheptene-8-carboxylic acid methyl ester], in series [2], the “% toxicity (10 μM), 5 h” value turned out to be 18%. The inhibition in vivo at 30 mg/kg in series [3] worked out at 33.6 ± 16.5%. In series [4], it took 600 nM to reach half-maximal inhibition (IC50).
